Laboratory results taken from PubChem BioAssay AID743119 (The Scripps Research Institute Molecular Screening Center, 2013).

Columns and labels:
[1] = target: Acyl-protein thioesterase 2 (Homo sapiens) (UniProt O95372); test: LYPLA1 and LYPLA2 inhibition in intact cells, late-stage follow-up, HeLa cells, in situ treatment, fluorescence gel (AID 743119); settings: gel-based ABPP FP-Rh fluorescence, LYPLA2
[2] = target: Acyl-protein thioesterase 1 (Homo sapiens) (UniProt O75608); test: as above; settings: gel-based ABPP FP-Rh fluorescence, LYPLA1
Chain of Acyl-protein thioesterase 1 (Homo sapiens) (O75608 whole entry, looked up): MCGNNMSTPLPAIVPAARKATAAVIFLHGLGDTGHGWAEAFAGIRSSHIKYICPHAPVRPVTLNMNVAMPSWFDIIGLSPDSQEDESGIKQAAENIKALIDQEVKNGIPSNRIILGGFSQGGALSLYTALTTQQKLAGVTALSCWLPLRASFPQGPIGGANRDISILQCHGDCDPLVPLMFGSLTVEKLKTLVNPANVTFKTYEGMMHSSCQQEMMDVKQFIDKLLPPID

Chain of Acyl-protein thioesterase 2 (Homo sapiens) (O95372 whole entry, looked up): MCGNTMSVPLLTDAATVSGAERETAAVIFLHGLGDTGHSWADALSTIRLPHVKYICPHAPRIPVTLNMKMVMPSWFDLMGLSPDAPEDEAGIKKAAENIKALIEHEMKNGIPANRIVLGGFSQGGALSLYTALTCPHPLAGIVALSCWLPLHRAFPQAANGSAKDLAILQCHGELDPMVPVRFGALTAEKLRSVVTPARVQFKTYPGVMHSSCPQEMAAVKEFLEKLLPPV

`O=C(ON1C(=O)C2CN(C(=O)N3CCOCC3)CCN2C1=O)N1CCC(CCc2ccc(Cl)cc2)CC1` (configuration not stated) showed an IC50 [1] of 143 nM and an IC50 [2] of 87 nM.
